From patent US10245261B2, “Substituted indol-5-ol derivatives and their therapeutic applications” (NantBioScience, Inc., priority 2013, dated 2019)

Experiments:
Assay in all cases: KinaseProfiler kinase assay
Format in all cases: biochemical
CDK2/cyclinE(h) = CDK2/cyclinE(h) (Homo sapiens, UniProt P24941)
Summary of the method: (§1)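 Compounds were serially diluted from DMSO into 20 mM MOPS buffer with EDTA, Brij-35, glycerol, β-mercaptoethanol and 1 mg/mL BSA. Reactions started with MgATP/[γ-33P]ATP, ran 40 min at room temperature, and phosphorylation was measured by scintillation counting after filtermat capture.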

ROCK-II(h) = ROCK-II(h) (Homo sapiens, UniProt O75116)
Sequence of ROCK-II(h) (O75116 whole entry): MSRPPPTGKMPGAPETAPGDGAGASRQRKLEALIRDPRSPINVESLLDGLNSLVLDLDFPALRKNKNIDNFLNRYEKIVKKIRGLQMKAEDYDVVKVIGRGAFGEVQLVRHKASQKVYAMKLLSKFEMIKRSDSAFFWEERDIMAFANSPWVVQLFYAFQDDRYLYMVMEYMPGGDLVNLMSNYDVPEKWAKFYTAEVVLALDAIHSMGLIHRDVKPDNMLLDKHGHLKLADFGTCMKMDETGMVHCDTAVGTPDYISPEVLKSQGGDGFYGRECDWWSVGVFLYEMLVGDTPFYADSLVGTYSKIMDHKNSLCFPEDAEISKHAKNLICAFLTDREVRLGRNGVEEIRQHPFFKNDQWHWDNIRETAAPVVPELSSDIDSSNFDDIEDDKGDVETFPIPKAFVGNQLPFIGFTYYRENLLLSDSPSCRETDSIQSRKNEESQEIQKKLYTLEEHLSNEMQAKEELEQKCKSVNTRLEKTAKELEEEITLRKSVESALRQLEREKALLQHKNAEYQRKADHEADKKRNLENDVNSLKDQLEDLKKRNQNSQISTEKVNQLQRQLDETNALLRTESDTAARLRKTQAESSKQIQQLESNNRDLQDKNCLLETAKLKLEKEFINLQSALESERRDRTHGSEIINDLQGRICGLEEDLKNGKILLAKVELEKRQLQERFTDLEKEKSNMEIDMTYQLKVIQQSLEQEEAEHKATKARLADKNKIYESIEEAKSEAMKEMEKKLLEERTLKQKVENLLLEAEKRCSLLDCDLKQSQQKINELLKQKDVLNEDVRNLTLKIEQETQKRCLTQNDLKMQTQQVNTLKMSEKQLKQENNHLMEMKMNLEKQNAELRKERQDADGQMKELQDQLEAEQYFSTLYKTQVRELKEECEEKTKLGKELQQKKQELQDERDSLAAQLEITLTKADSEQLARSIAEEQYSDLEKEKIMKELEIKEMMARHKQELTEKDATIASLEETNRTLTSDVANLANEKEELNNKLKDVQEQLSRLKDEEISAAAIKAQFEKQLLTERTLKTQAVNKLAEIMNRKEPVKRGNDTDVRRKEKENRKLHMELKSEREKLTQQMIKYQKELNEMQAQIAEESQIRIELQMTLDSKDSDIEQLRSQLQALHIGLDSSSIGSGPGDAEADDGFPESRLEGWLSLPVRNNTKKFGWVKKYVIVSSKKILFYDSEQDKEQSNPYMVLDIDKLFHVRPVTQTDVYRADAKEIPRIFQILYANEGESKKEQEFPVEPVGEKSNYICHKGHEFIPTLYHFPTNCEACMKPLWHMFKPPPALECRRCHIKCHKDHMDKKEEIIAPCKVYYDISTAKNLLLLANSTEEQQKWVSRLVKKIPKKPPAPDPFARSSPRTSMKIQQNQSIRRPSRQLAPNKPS
Summary of the method: as §1

PKCδ(h) = PKCδ(h) (Homo sapiens, UniProt Q05655)
Summary of the method: as §1

cKit(V654A)(h) = cKit(V654A)(h) (Homo sapiens, UniProt P10721, V654A)
Summary of the method: as §1

TSSK1(h) = TSSK1(h) (Homo sapiens, UniProt Q9BXA7)
Summary of the method: as §1

CHK2(h) = CHK2(h) (Homo sapiens, UniProt O96017)
Summary of the method: as §1

[1] = target: PI3 Kinase (p110δ/p85α)(h) (Homo sapiens, UniProt O00329)
Summary of the method: as §1

MEK1(h) = MEK1(h) (Homo sapiens, UniProt Q02750)
Summary of the method: as §1

FGFR1(V561M)(h) = FGFR1(V561M)(h) (Homo sapiens, UniProt P11362, V561M)
Summary of the method: as §1

DYRK2(h) = DYRK2(h) (Homo sapiens, UniProt Q92630)
Summary of the method: as §1

JNK1α1(h) = JNK1α1(h) (Homo sapiens, UniProt P45983)
Summary of the method: as §1

EphA1(h) = EphA1(h) (Homo sapiens, UniProt P21709)
Summary of the method: as §1

PRAK(h) = PRAK(h) (Homo sapiens, UniProt Q8IW41)
Summary of the method: as §1

Arg(m) = Arg(m) (Mus musculus, UniProt Q4JIM5)
Summary of the method: as §1

MSK1(h) = MSK1(h) (Homo sapiens, UniProt O75582)
Summary of the method: as §1

LOK(h) = LOK(h) (Homo sapiens, UniProt O94804)
Sequence of LOK(h) (O94804 whole entry): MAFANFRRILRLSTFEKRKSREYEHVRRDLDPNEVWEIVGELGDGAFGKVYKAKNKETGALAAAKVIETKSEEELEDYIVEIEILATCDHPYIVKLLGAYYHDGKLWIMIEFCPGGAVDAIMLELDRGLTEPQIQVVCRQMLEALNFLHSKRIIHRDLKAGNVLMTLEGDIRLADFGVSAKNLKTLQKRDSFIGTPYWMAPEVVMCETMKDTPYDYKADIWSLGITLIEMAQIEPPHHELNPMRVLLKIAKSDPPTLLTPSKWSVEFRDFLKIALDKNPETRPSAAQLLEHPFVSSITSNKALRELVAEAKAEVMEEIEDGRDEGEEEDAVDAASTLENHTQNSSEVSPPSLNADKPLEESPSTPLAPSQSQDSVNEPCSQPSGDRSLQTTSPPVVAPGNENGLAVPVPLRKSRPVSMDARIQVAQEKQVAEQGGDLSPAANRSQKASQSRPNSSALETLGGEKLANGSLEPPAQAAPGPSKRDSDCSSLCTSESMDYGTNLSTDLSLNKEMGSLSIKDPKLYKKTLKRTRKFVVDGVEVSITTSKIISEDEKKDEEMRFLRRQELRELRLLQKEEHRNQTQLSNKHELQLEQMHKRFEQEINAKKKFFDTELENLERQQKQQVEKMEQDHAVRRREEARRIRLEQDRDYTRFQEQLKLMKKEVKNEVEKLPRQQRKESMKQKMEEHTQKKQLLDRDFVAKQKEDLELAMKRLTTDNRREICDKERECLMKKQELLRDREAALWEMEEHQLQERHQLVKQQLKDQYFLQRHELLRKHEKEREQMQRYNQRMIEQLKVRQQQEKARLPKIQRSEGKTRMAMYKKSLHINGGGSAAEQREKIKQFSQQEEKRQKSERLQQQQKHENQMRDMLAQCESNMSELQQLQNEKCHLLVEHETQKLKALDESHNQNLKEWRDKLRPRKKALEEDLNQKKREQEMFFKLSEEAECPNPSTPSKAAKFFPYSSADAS
Summary of the method: as §1

Rsk1(h) = Rsk1(h) (Homo sapiens, UniProt Q15418)
Sequence of Rsk1(h) (Q15418 whole entry): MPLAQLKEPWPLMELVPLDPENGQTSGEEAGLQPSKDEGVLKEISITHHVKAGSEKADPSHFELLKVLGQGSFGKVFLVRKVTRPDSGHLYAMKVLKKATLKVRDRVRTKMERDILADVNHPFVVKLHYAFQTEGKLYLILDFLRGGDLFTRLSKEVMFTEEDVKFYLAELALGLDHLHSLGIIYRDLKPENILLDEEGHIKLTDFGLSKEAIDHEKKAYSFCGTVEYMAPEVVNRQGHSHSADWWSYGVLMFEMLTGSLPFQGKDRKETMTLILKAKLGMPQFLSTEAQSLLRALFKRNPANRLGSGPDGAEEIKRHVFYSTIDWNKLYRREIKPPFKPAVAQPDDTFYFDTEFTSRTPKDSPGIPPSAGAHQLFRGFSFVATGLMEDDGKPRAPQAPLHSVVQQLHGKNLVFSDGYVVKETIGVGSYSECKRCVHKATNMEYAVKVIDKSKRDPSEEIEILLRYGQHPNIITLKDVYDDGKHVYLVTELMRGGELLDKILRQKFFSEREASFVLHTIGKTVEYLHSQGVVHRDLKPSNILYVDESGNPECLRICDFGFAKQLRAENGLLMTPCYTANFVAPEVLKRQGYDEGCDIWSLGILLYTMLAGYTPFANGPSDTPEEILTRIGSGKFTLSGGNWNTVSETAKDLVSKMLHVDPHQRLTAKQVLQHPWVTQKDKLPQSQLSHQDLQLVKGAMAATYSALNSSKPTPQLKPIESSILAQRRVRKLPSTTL
Summary of the method: as §1

c-RAF(h) = c-RAF(h) (Homo sapiens, UniProt P04049, Y340D/Y341D)
Sequence of c-RAF(h) (P04049 306-648 Y340D/Y341D): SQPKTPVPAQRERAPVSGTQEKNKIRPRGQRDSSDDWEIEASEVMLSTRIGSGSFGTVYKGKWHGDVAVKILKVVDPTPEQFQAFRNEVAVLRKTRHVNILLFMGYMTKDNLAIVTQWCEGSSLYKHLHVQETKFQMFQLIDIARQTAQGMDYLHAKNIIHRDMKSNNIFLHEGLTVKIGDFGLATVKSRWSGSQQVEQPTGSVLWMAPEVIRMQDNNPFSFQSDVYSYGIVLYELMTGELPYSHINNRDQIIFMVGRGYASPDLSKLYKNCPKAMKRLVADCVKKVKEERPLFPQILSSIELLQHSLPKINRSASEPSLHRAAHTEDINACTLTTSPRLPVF
Summary of the method: as §1

CDK9/cyclin T1(h) = CDK9/cyclin T1(h) (Homo sapiens, UniProt P50750)
Summary of the method: as §1

MST3(h) = MST3(h) (Homo sapiens, UniProt Q9Y6E0)
Summary of the method: as §1

Ros(h) = Ros(h) (Homo sapiens, UniProt P08922)
Summary of the method: as §1

PDGFRα(D842V)(h) = PDGFRα(D842V)(h) (Homo sapiens, UniProt P16234, D842V)
Summary of the method: as §1

Aurora-C(h) = Aurora-C(h) (Homo sapiens, UniProt Q9UQB9)
Summary of the method: as §1

[2] = target: PI3 Kinase (p110α(E545K)/p85α)(m) (Mus musculus, UniProt P42337, E545K)
Summary of the method: as §1

PKCμ(h) = PKCμ(h) (Homo sapiens, UniProt Q15139)
Summary of the method: as §1

BTK(h) = BTK(h) (Homo sapiens, UniProt Q06187)
Summary of the method: as §1

Tec(h) activated = Tec(h) activated (Homo sapiens, UniProt P42680)
Sequence of Tec(h) activated (P42680 whole entry): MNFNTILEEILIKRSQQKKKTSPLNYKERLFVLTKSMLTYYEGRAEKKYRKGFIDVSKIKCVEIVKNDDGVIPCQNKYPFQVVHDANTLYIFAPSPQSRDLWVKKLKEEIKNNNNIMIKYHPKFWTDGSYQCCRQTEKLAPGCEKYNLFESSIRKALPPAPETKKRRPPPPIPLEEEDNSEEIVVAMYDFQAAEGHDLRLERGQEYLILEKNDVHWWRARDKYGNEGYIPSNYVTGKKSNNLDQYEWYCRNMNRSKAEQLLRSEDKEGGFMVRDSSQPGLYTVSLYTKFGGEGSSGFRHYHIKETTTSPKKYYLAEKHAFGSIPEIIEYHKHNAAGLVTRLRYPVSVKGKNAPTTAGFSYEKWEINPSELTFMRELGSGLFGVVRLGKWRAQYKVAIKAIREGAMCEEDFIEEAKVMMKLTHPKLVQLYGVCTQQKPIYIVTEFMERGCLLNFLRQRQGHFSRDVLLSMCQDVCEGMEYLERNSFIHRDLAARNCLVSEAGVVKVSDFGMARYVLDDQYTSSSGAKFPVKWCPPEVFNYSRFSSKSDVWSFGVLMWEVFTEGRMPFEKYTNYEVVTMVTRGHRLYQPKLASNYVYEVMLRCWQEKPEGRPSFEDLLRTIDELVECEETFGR
Summary of the method: as §1

WNK3(h) = WNK3(h) (Homo sapiens, UniProt Q9BYP7)
Summary of the method: as §1

CaMKIV(h) = CaMKIV(h) (Homo sapiens, UniProt Q16566)
Summary of the method: as §1

PKCθ(h) = PKCθ(h) (Homo sapiens, UniProt Q04759)
Summary of the method: as §1

EphA8(h) = EphA8(h) (Homo sapiens, UniProt P29322)
Sequence of EphA8(h) (P29322 28-1005): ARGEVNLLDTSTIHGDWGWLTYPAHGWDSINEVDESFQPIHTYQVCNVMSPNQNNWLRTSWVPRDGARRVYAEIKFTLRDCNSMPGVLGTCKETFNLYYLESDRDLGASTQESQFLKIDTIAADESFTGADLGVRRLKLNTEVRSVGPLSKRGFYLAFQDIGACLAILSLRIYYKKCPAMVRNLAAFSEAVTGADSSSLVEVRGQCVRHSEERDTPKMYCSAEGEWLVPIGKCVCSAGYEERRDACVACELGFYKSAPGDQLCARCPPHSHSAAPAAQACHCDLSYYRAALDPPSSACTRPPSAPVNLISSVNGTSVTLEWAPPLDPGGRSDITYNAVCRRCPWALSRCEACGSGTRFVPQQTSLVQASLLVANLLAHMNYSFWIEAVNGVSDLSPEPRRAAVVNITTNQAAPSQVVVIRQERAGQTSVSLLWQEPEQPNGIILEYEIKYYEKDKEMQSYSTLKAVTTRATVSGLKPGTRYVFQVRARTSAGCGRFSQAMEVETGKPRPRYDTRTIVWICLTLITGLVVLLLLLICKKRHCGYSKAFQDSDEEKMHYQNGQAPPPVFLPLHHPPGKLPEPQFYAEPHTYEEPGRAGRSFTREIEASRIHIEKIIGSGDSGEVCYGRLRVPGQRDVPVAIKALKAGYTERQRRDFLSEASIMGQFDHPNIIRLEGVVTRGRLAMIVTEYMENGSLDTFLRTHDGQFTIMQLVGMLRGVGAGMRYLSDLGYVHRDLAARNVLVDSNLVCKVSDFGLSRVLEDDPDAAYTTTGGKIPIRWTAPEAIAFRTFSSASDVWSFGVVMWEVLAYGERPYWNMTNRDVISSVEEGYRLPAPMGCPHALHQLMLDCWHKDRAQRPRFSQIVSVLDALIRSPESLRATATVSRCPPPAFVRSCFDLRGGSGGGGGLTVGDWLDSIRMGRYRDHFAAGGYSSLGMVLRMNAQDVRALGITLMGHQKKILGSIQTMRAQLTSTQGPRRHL
Summary of the method: as §1

Compound | inhibition at 0.1 µM (CDK2/cyclinE(h)) [%] | inhibition at 0.1 µM (ROCK-II(h)) [%] | inhibition at 0.1 µM (PKCδ(h)) [%] | inhibition at 0.1 µM (cKit(V654A)(h)) [%] | inhibition at 0.1 µM (TSSK1(h)) [%] | inhibition at 0.1 µM (CHK2(h)) [%] | inhibition at 0.1 µM [1] [%] | inhibition at 0.1 µM (MEK1(h)) [%] | inhibition at 0.1 µM (FGFR1(V561M)(h)) [%] | inhibition at 0.1 µM (DYRK2(h)) [%] | inhibition at 0.1 µM (JNK1α1(h)) [%] | inhibition at 0.1 µM (EphA1(h)) [%] | inhibition at 0.1 µM (PRAK(h)) [%] | inhibition at 0.1 µM (Arg(m)) [%] | inhibition at 0.1 µM (MSK1(h)) [%] | inhibition at 0.1 µM (LOK(h)) [%] | inhibition at 0.1 µM (Rsk1(h)) [%] | inhibition at 0.1 µM (c-RAF(h)) [%] | inhibition at 0.1 µM (CDK9/cyclin T1(h)) [%] | inhibition at 0.1 µM (MST3(h)) [%] | other results
Cc1cc2c(F)c(Oc3nc(Nc4cc(C5CC5)[nH]n4)cc(N4CCN(C)CC4)n3)ccc2[nH]1 [Compound 10] | 1 | 11 | 5 | 35 | 4 | 11 | 2 | 14 | 101 | -6 | -7 | 78 | -24 | 99 | 96 | 73 | -10 | 6 | 22 | 85 | inhibition at 0.1 µM (Ros(h)): 12%; inhibition at 0.1 µM (PDGFRα(D842V)(h)): 73%; inhibition at 0.1 µM (Aurora-C(h)): 54%; inhibition at 0.1 µM [2]: 0%; inhibition at 0.1 µM (PKCμ(h)): 7%; inhibition at 0.1 µM (BTK(h)): 50%; inhibition at 0.1 µM (Tec(h) activated): 46%; inhibition at 0.1 µM (WNK3(h)): 1%; inhibition at 0.1 µM (CaMKIV(h)): -25%; inhibition at 0.1 µM (PKCθ(h)): 21%; inhibition at 0.1 µM (EphA8(h)): 33%
Cc1cc2c(F)c(Oc3nc(Nc4cc(C5CC5)[nH]n4)cc(N4CCNCC4)n3)ccc2[nH]1 [Compound 11, N-(5-cyclopropyl-1H-pyrazol-3-yl)-2-((4-fluoro-2-methyl-1H-indol-5-yl)oxy)-6-(piperazin-1-yl)pyrimidin-4-amine] | 3 | 3 | 5 | 53 | 3 | 4 | -1 | 1 | 101 | -1 | 11 | 92 | 6 | 102 | 9 | 86 | 9 | 1 | 32 | 80 | inhibition at 0.1 µM (Ros(h)): 71%; inhibition at 0.1 µM (PDGFRα(D842V)(h)): 70%; inhibition at 0.1 µM (Aurora-C(h)): 67%; inhibition at 0.1 µM [2]: 1%; inhibition at 0.1 µM (PKCμ(h)): -7%; inhibition at 0.1 µM (BTK(h)): 71%; inhibition at 0.1 µM (Tec(h) activated): 20%; inhibition at 0.1 µM (WNK3(h)): 8%; inhibition at 0.1 µM (CaMKIV(h)): -1%; inhibition at 0.1 µM (PKCθ(h)): -16%; inhibition at 0.1 µM (EphA8(h)): 39%
